Experimental data reported in ChEMBL document CHEMBL5137061, “Design and Measurement of Drug Tissue Concentration Asymmetry and Tissue Exposure-Effect (Tissue PK-PD) Evaluation” (J Med Chem, 2022).

Assays:
[1] = Tmax in BALBnu/CrlCrlj mouse xenografted with human KM12 cell tumor at 0.06 to 0.6 mg/kg, po measured after 48 hrs; type: ADME, organism-based; conditions: in vivo, dose 0.06-0.6 mg/kg
[2] = Tmax in BALBnu/CrlCrlj mouse at 0.1 to 1 mg/kg, po measured for 1 to 24 hrs; type: ADME, organism-based; conditions: in vivo, dose lower 0.1 mg/kg, time lower 1 hrs, dose upper 1 mg/kg, time upper 24 hrs

Tmax [1]: 7 h
Tmax [2]: 2 h
SMILES: CS(=O)(=O)c1ccc(C(F)(F)F)cc1NC(=O)Nc1cnc(Oc2ccc(-c3cc(Cl)cnc3N)cc2)nc1 [ONO-7579]
